Laboratory results taken from paper PMC7587356, “High-Throughput Screening for Inhibitors of the SARS-CoV-2 Protease Using a FRET-Biosensor” (Molecules, 2020).
Counter-ions that a name gives are not always drawn. Like-named read-outs stand apart in the source and are kept apart here. Peptide text beside a SMILES is read from it. * marks the point of attachment. Cbz = O=C(OCc1ccccc1)*

Target: SARS-CoV-2 3CLpro (Severe acute respiratory syndrome coronavirus 2, UniProt P0DTD1)
Assay: biochemical
Assay type: biochemical
Set-up: Replicate_1 / Replicate_2 / mean / mean (LOPAC_screen_w_protease): unit not given here
Conditions: for inhibition at 5 µM: 4 h; for mean (LOPAC screen with protease) / Replicate_1 (LOPAC screen with protease) / Replicate_2 (LOPAC screen with protease): primary screen at 5 µM
[1] = sheet LOPAC_screen_w_protease, LOPAC1280 at 5 µM, mean of two replicates
[2] = sheet LOPAC_screen_w_protease, LOPAC1280 at 5 µM, replicate 1
[3] = sheet LOPAC_screen_w_protease, LOPAC1280 at 5 µM, replicate 2
[4] = LOPAC1280 primary screen with protease, 5 µM compound, mean of two replicates
[5] = LOPAC1280 primary screen with protease, 5 µM compound, replicate 1
[6] = LOPAC1280 primary screen with protease, 5 µM compound, replicate 2
[7] = sheet LOPAC_screen_w_protease, primary screen of LOPAC1280 at 5 µM with protease, mean of the two replicates, read-out: mean
[8] = sheet LOPAC_screen_w_protease, primary screen of LOPAC1280 at 5 µM with protease, replicate 1, read-out: Replicate_1
[9] = sheet LOPAC_screen_w_protease, primary screen of LOPAC1280 at 5 µM with protease, replicate 2, read-out: Replicate_2
[10] = sheet LOPAC_screen_w_protease, primary screen with protease, mean of two replicates
[11] = sheet LOPAC_screen_w_protease, primary screen with protease, replicate 1
[12] = sheet LOPAC_screen_w_protease, primary screen with protease, replicate 2
[13] = sheet LOPAC_screen_w_protease, mean of two replicates
[14] = sheet LOPAC_screen_w_protease, replicate 1
[15] = sheet LOPAC_screen_w_protease, replicate 2
[16] = sheet LOPAC_screen_w_protease, LOPAC1280 primary screen at 5 µM, with protease, mean of the two replicates, read-out: mean
[17] = sheet LOPAC_screen_w_protease, LOPAC1280 primary screen at 5 µM, with protease, replicate 1, read-out: Replicate_1
[18] = sheet LOPAC_screen_w_protease, LOPAC1280 primary screen at 5 µM, with protease, replicate 2, read-out: Replicate_2
[19] = sheet LOPAC_screen_w_protease, LOPAC1280 primary screen with protease, 5 µM compound, mean of the two replicates
[20] = sheet LOPAC_screen_w_protease, LOPAC1280 primary screen with protease, 5 µM compound, replicate 1
[21] = sheet LOPAC_screen_w_protease, LOPAC1280 primary screen with protease, 5 µM compound, replicate 2
[22] = LOPAC1280 primary screen with protease, 5 µM compound, replicate 1, read-out: Replicate_1 (LOPAC_screen_w_protease)
[23] = LOPAC1280 primary screen with protease, 5 µM compound, replicate 2, read-out: Replicate_2 (LOPAC_screen_w_protease)
[24] = LOPAC1280 primary screen with protease, 5 µM compound, mean of the two replicates
[25] = sheet LOPAC_screen_w_protease, primary screen of LOPAC1280 at 5 µM with protease, mean of the two replicates
[26] = sheet LOPAC_screen_w_protease, primary screen of LOPAC1280 at 5 µM with protease, replicate 1
[27] = sheet LOPAC_screen_w_protease, primary screen of LOPAC1280 at 5 µM with protease, replicate 2
[28] = sheet LOPAC_screen_w_protease, primary screen with protease, 5 µM, mean of two replicates, read-out: mean
[29] = sheet LOPAC_screen_w_protease, primary screen with protease, 5 µM, replicate 1, read-out: Replicate_1
[30] = sheet LOPAC_screen_w_protease, primary screen with protease, 5 µM, replicate 2, read-out: Replicate_2

CC(=O)[C@H]1CC[C@H]2[C@@H]3CC=C4C[C@@H](OS(=O)(=O)[O-])CC[C@]4(C)[C@H]3CC[C@]12C.[Na+] [Pregnenolone sulfate sodium]
mean [1]: 1.045 | Replicate_1 [2]: 0.04623 | Replicate_2 [3]: 2.043

CNCC(O)c1ccc(O)cc1 (racemic) [(±)-Synephrine]
mean (LOPAC_screen_w_protease) [4]: 1.431 | Replicate_1 (LOPAC_screen_w_protease) [5]: 1.098 | Replicate_2 (LOPAC_screen_w_protease) [6]: 1.765

CNC(=O)[C@H]1O[C@@H](n2cnc3c(NCc4cccc(I)c4)nc(Cl)nc32)[C@H](O)[C@@H]1O [Chloro-IB-MECA]
inhibition at 5 µM [7]: 3.22% | inhibition at 5 µM [8]: 4.25% | inhibition at 5 µM [9]: 2.19%

CN1CCC(c2c[nH]c3ccc(O)cc23)CC1.O=C(O)/C=C\C(=O)O [BRL 54443 maleate]
mean [10]: 2.426 | Replicate_1 [11]: 0.4828 | Replicate_2 [12]: 4.37

CCCn1c(=O)c2[nH]c(-c3ccc(S(=O)(=O)O)cc3)nc2n(CCC)c1=O [1,3-Dipropyl-8-p-sulfophenylxanthine]
mean (LOPAC screen with protease) [13]: 7.8949 | Replicate_1 (LOPAC screen with protease) [14]: 7.582 | Replicate_2 (LOPAC screen with protease) [15]: 8.208

Cc1nc2c(OCc3ccccc3)cccn2c1CC#N [SCH-28080]
mean [10]: 2.443 | Replicate_1 [11]: 2.6463 | Replicate_2 [12]: 2.24

C=C(C)[C@H]1Cc2c(ccc3c2O[C@@H]2COc4cc(OC)c(OC)cc4[C@@H]2C3=O)O1 [Rotenone]
inhibition at 5 µM [16]: 0.71% | inhibition at 5 µM [17]: 2.43% | inhibition at 5 µM [18]: -1.01%

NCCCS(=O)(=O)O.[Na] [3-Amino-1-propanesulfonic acid sodium]
mean [19]: 5.742 | Replicate_1 [20]: 6.514 | Replicate_2 [21]: 4.97

CNCCc1ccc(O)c(O)c1.Cl [N-Methyldopamine hydrochloride]
mean [1]: 1.304 | Replicate_1 [2]: 0.8088 | Replicate_2 [3]: 1.799

CC(C)C[C@H](NC(=O)[C@H](O)[C@H](N)Cc1ccccc1)C(=O)O [Epibestatin hydrochloride]
inhibition at 5 µM [22]: 1.71% | inhibition at 5 µM [23]: 2.3% | mean (LOPAC_screen_w_protease) [24]: 2.008

COc1ccc2[nH]cc(CCN)c2c1.Cl [O-Methylserotonin hydrochloride]
mean (LOPAC_screen_w_protease) [24]: 2.11 | Replicate_1 (LOPAC_screen_w_protease) [5]: 3.3171 | Replicate_2 (LOPAC_screen_w_protease) [6]: 0.9034

CN1CCN(CC/C=C2/c3ccccc3Sc3ccc(S(=O)(=O)N(C)C)cc32)CC1.Cl [Thiothixene hydrochloride]
mean (LOPAC_screen_w_protease) [4]: 1.56 | Replicate_1 (LOPAC_screen_w_protease) [5]: 2.053 | Replicate_2 (LOPAC_screen_w_protease) [6]: 1.066

C[C@@H]1O[C@@H](O[C@H]2C[C@@H](O)[C@]3(CO)[C@H]4[C@H](O)C[C@]5(C)[C@@H]([C@@H]6COC(=O)C6)CC[C@]5(O)[C@@H]4CC[C@]3(O)C2)[C@H](O)[C@H](O)[C@H]1O [Dihydroouabain]
mean [25]: 3.947 | Replicate_1 [26]: 5.984 | Replicate_2 [27]: 1.91

C[Se]C[C@H](N)C(=O)O.Cl [Se-(methyl)selenocysteine hydrochloride]
mean (LOPAC screen with protease) [13]: 12.3582 | Replicate_1 (LOPAC screen with protease) [14]: 13.6627 | Replicate_2 (LOPAC screen with protease) [15]: 11.0537

N[C@@H]1C[C@H]1c1ccccc1 [Tranylcypromine hydrochloride]
Replicate_1: 0.4955 | Replicate_2: 0.8775 | mean: 0.6865

CC(N)(Cc1ccc(O)cc1)C(=O)O (racemic) [DL-alpha-Methyl-p-tyrosine]
mean [1]: 1.1698 | Replicate_1 [2]: 0.7226 | Replicate_2 [3]: 1.617

Nc1c2c(nc3ccccc13)CCCC2O.O=C(O)/C=C\C(=O)O (centres unmarked) [Hydroxytacrine maleate]
mean [10]: 2.348 | Replicate_1 [11]: 3.064 | Replicate_2 [12]: 1.632

Cl.c1ccc2c(N3CCNCC3)cccc2c1 [1-(1-Naphthyl)piperazine hydrochloride]
mean (LOPAC_screen_w_protease) [4]: 1.563 | Replicate_1 (LOPAC_screen_w_protease) [5]: 4.027 | Replicate_2 (LOPAC_screen_w_protease) [6]: -0.9014

C[C@@H](N)Cc1cnc[nH]1.Cl.Cl
Replicate_1: 2.14 | Replicate_2: -0.08051 | mean: 1.03

CC(NCCc1ccc(O)cc1)C(O)c1ccc(O)cc1 (centres unmarked) [Ritodrine hydrochloride]
inhibition at 5 µM [28]: -0.392% | inhibition at 5 µM [29]: -0.659% | inhibition at 5 µM [30]: -0.126%

CCCCCCN(CCCCCC)C(=O)Cc1c(-c2ccc(F)cc2)[nH]c2ccccc12
mean [19]: 4.628 | Replicate_1 [20]: 5.9351 | Replicate_2 [21]: 3.32

C[C@H]1c2cccc(O)c2C(=O)C2=C(O)[C@]3(O)C(=O)C(C(N)=O)=C(O)[C@@H](N(C)C)[C@@H]3[C@@H](O)[C@@H]21 [Doxycycline hydrochloride]
inhibition at 5 µM (sheet LOPAC_screen_w_protease, LOPAC1280 primary screen with protease, 5 µM compound, mean of the two replicates, read-out: mean): 4.21% | inhibition at 5 µM (sheet LOPAC_screen_w_protease, LOPAC1280 primary screen with protease, 5 µM compound, replicate 1, read-out: Replicate_1): 5.78% | inhibition at 5 µM (sheet LOPAC_screen_w_protease, LOPAC1280 primary screen with protease, 5 µM compound, replicate 2, read-out: Replicate_2): 2.65%

COc1cc(/C=C(\C#N)C(=O)c2ccc(O)c(O)c2)cc(I)c1O [I-OMe-Tyrphostin AG 538]
mean (sheet LOPAC_screen_w_protease, primary screen with protease, compound at 5 µM, mean of two replicates): 2.606 | Replicate_1 (sheet LOPAC_screen_w_protease, primary screen with protease, compound at 5 µM, replicate 1): 2.231 | Replicate_2 (sheet LOPAC_screen_w_protease, primary screen with protease, compound at 5 µM, replicate 2): 2.982

O=P1(N(CCCl)CCCl)NCCCO1 (centres unmarked) [Cyclophosphamide monohydrate]
inhibition at 5 µM (read-out: Replicate_1): -1.54% | inhibition at 5 µM (read-out: Replicate_2): 3.01% | inhibition at 5 µM (read-out: mean): 0.736%

COc1cc(C(=O)OCCCN2CCCN(CCCOC(=O)c3cc(OC)c(OC)c(OC)c3)CC2)cc(OC)c1OC [Dilazep hydrochloride]
inhibition at 5 µM [7]: 3.29% | inhibition at 5 µM [8]: 2.23% | inhibition at 5 µM [9]: 4.35%

Cc1oncc1C(=O)Nc1ccc(C(F)(F)F)cc1 [Leflunomide]
inhibition at 5 µM (sheet LOPAC_screen_w_protease, LOPAC1280 at 5 µM, mean of two replicates, read-out: mean): 1.27% | inhibition at 5 µM (sheet LOPAC_screen_w_protease, LOPAC1280 at 5 µM, replicate 1, read-out: Replicate_1): 0.0888% | inhibition at 5 µM (sheet LOPAC_screen_w_protease, LOPAC1280 at 5 µM, replicate 2, read-out: Replicate_2): 2.44%

COc1ccc(OC)c(C(O)C(C)N)c1 (centres unmarked) [Methoxamine hydrochloride]
inhibition at 5 µM [7]: 3.32% | inhibition at 5 µM [8]: 2.74% | inhibition at 5 µM [9]: 3.89%

O=C([O-])c1cc2cc(Cc3cccnc3)ccc2o1.[Na+] [Furegrelate sodium]
mean [25]: 4.074 | Replicate_1 [26]: 5.241 | Replicate_2 [27]: 2.907

CC(=O)O.NC(=NCCC[C@H](N)C(=O)O)NO [NG-Hydroxy-L-arginine acetate]
mean [10]: 2.232 | Replicate_1 [11]: 2.489 | Replicate_2 [12]: 1.975

O=C(O)c1cccnc1C(=O)O [Quinolinic acid]
inhibition at 5 µM [16]: 0.58% | inhibition at 5 µM [17]: -0.228% | inhibition at 5 µM [18]: 1.39%

O=C(O)C1CN(CCCP(=O)(O)O)CCN1 (racemic) [(±)-CPP]
mean [19]: 4.122 | Replicate_1 [20]: 5.3739 | Replicate_2 [21]: 2.869

CCCN1CCO[C@@H]2c3cc(O)ccc3OC[C@H]21.Cl [S(+)-PD 128,907 hydrochloride]
mean (sheet LOPAC_screen_w_protease, LOPAC1280 primary screen at 5 µM, with protease, mean of the two replicates): 0.4405 | Replicate_1 (sheet LOPAC_screen_w_protease, LOPAC1280 primary screen at 5 µM, with protease, replicate 1): 0.5719 | Replicate_2 (sheet LOPAC_screen_w_protease, LOPAC1280 primary screen at 5 µM, with protease, replicate 2): 0.3091

O=C1NC(=O)C(c2ccccc2)(c2ccccc2)N1 [Phenytoin sodium]
inhibition at 5 µM [22]: 1.2% | inhibition at 5 µM [23]: 2.6% | mean (LOPAC_screen_w_protease) [24]: 1.899

CCCCNc1ccc(C(=O)OCCN(C)C)cc1 [Tetracaine hydrochloride]
inhibition at 5 µM [28]: -0.191% | inhibition at 5 µM [29]: 0.225% | inhibition at 5 µM [30]: -0.607%

CC(C)[C@H](NC(=O)OCc1ccccc1)C(=O)N[C@H](C=O)Cc1ccccc1 [MDL 28170] (Cbz-Val-Phe-aldehyde)
inhibition at 5 µM (read-out: Replicate_1 (LOPAC_screen_w_protease)): 0.281% | inhibition at 5 µM (read-out: Replicate_2 (LOPAC_screen_w_protease)): 3.52%
